{"source": "paper PMC11864979", "about": "“First-in-class ultralong-target-residence-time p38α inhibitors as a mitosis-targeted therapy for colorectal cancer” (Nature Cancer, 2025)", "test_in_all_cases": "selectivity profiling in a panel of 340 wild-type kinases (Reaction Biology Europe)", "format_in_all_cases": "binding", "key": {"340 wild-type kinases [1]": {"target": "T1, 340 wild-type kinases (Homo sapiens, UniProt Q86Y07)", "T1 construct": "purchased Reaction Biology Europe", "T1 sequence (Q86Y07 whole entry)": "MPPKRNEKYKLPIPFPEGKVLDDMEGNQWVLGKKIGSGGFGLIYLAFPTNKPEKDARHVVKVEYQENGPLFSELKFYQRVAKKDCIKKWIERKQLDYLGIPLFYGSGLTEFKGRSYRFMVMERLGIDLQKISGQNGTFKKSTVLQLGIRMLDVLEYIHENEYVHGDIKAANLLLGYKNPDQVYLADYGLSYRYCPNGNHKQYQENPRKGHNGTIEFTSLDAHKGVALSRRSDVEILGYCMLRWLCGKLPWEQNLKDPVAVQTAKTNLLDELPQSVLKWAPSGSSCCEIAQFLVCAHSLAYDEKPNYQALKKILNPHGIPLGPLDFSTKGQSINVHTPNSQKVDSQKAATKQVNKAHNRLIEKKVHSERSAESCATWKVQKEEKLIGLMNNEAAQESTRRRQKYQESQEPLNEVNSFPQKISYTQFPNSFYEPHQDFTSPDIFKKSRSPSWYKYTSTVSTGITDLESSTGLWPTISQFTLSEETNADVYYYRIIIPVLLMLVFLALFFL"}, "340 wild-type kinases [2]": {"target": "T2, 340 wild-type kinases (Homo sapiens, UniProt P36897)", "T2 construct": "purchased Reaction Biology Europe", "T2 sequence (P36897 34-503)": "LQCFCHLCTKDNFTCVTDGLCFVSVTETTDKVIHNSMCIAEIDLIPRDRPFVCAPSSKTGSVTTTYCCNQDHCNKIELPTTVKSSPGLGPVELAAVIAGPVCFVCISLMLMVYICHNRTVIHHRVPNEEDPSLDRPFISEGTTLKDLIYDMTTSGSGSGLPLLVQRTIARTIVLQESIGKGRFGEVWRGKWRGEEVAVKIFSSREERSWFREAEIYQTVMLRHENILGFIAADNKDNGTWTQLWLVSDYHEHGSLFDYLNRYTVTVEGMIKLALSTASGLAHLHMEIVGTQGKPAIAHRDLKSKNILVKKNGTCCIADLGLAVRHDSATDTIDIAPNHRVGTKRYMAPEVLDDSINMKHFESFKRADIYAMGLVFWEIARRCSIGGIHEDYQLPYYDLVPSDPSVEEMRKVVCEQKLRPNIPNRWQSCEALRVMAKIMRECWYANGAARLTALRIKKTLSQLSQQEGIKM"}, "340 wild-type kinases [3]": {"target": "T3, 340 wild-type kinases (Homo sapiens, UniProt P17252)", "T3 construct": "purchased Reaction Biology Europe"}, "340 wild-type kinases [4]": {"target": "T4, 340 wild-type kinases (Homo sapiens, UniProt Q8TD19)", "T4 construct": "purchased Reaction Biology Europe", "T4 sequence (Q8TD19 1-979)": "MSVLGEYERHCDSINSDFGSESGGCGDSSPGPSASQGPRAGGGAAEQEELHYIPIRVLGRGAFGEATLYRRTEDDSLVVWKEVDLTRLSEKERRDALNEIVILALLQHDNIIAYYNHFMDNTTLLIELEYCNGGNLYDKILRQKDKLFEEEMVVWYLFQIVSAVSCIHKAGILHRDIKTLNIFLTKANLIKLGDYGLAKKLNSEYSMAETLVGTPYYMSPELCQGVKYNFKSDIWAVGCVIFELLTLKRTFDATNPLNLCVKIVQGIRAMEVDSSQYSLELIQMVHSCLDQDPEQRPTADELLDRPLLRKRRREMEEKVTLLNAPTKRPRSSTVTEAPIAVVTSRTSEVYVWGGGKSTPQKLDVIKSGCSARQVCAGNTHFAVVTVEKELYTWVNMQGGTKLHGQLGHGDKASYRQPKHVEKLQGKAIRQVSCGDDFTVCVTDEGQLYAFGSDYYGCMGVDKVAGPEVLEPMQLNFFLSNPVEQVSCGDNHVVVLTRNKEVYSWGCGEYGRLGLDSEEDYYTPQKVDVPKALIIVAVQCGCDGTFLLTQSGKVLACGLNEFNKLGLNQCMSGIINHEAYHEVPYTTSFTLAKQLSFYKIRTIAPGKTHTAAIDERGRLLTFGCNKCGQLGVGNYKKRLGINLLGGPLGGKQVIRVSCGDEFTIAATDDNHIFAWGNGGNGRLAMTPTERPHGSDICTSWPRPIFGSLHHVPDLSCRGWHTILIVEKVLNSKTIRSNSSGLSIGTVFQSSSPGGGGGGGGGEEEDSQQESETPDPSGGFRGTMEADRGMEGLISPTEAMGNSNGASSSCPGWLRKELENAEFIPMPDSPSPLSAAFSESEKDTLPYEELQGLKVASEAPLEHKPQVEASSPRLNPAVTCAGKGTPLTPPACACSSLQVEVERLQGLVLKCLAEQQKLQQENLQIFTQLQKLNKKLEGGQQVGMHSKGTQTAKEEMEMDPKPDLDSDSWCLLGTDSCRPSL"}, "340 wild-type kinases [5]": {"target": "T5, 340 wild-type kinases (Homo sapiens, UniProt P50613)", "T5 construct": "purchased Reaction Biology Europe", "T5 sequence (P50613 whole entry)": "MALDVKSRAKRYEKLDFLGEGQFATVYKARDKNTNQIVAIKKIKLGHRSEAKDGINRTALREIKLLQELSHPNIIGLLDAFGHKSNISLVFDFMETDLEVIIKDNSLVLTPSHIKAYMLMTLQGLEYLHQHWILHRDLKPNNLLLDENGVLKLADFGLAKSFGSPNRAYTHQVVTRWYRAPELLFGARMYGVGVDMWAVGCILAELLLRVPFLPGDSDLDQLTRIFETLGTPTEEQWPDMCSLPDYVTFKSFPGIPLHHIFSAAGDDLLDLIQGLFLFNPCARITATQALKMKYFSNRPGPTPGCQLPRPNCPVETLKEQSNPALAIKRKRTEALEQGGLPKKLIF"}, "340 wild-type kinases [6]": {"target": "T6, 340 wild-type kinases (Homo sapiens, UniProt P22455)", "T6 construct": "purchased Reaction Biology Europe", "T6 sequence (P22455 22-802)": "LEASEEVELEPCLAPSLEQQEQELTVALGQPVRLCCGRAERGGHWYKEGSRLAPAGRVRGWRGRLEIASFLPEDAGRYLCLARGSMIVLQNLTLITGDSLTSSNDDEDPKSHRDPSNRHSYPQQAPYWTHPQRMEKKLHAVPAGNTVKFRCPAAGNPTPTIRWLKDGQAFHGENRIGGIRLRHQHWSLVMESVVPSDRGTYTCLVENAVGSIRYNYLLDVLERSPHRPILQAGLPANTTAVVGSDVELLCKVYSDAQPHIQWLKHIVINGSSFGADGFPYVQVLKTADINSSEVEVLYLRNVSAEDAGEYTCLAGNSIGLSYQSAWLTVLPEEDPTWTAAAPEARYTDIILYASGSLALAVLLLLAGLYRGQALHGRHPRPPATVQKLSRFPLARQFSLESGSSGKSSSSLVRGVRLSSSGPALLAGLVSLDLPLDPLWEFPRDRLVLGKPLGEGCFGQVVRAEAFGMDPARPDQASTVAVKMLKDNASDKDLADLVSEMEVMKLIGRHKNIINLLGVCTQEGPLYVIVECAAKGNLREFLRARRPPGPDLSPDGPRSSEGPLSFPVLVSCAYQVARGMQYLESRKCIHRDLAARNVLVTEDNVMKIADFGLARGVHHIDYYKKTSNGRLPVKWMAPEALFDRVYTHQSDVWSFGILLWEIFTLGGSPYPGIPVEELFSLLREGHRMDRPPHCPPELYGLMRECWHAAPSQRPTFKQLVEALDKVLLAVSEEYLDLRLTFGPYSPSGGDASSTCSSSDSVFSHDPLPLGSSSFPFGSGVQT"}, "340 wild-type kinases [7]": {"target": "T7, 340 wild-type kinases (Homo sapiens, UniProt O00238)", "T7 construct": "purchased Reaction Biology Europe", "T7 sequence (O00238 14-502)": "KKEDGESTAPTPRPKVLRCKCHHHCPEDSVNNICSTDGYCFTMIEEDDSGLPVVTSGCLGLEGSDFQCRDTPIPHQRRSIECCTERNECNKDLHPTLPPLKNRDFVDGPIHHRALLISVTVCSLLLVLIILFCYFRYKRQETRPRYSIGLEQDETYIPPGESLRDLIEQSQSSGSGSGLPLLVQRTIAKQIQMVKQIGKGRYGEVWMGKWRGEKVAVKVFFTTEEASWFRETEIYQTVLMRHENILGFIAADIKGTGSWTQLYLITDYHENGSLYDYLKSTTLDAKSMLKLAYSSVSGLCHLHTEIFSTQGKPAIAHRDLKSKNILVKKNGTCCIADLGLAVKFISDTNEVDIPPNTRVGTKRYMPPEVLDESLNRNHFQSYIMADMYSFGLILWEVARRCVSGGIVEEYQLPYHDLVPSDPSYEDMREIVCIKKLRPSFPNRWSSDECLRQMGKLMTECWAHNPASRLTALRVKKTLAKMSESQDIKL"}, "340 wild-type kinases [8]": {"target": "T8, 340 wild-type kinases (Homo sapiens, UniProt Q08881)", "T8 construct": "purchased Reaction Biology Europe", "T8 sequence (Q08881 1-620)": "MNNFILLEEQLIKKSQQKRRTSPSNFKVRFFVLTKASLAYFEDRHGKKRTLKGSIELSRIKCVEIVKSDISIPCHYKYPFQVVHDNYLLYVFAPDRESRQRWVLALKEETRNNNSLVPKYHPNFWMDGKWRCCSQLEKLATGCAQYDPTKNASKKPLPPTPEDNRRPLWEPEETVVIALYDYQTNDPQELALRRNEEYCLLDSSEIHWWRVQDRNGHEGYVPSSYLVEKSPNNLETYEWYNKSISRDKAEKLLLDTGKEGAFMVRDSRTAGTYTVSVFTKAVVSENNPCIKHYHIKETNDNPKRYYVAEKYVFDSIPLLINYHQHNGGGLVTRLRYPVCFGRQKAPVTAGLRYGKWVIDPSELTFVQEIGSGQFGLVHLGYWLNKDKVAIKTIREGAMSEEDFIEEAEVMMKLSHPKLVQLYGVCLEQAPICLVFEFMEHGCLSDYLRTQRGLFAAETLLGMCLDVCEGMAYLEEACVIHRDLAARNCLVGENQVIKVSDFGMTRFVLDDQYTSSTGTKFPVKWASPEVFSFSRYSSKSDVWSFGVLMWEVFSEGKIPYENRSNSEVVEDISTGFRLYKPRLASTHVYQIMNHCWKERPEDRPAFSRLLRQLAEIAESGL"}}, "note": "Like-named read-outs stand apart in the source and are kept apart here."}
{"molecule": "CNC(=O)c1ccc2c(c1)C(=O)c1ccc(Nc3ccc(F)c(NC(=O)C4CC4)c3)cc1CC2", "note": "[Compound 2015]", "values": [{"measurement": "remaining activity at 0.2 µM", "setting": "340 wild-type kinases [1]; 0.2 µM 2015, read-out: VRK2 residual activity", "result": 115, "unit": "%"}, {"measurement": "remaining activity at 1 µM", "setting": "340 wild-type kinases [1]; 1 µM 2015, read-out: VRK2 residual activity", "result": 118, "unit": "%"}, {"measurement": "remaining activity at 0.2 µM", "setting": "340 wild-type kinases [1]; VRK2, 0.2 µM, read-out: residual activity", "result": 115, "unit": "%"}, {"measurement": "remaining activity at 1 µM", "setting": "340 wild-type kinases [1]; VRK2, 1 µM, read-out: residual activity", "result": 118, "unit": "%"}, {"measurement": "remaining activity at 0.2 µM", "setting": "340 wild-type kinases [2]; 0.2 µM 2015, read-out: TGFBR1 residual activity", "result": 84.1, "unit": "%"}, {"measurement": "remaining activity at 1 µM", "setting": "340 wild-type kinases [2]; 1 µM 2015, read-out: TGFBR1 residual activity", "result": 90.9, "unit": "%"}, {"measurement": "remaining activity at 0.2 µM", "setting": "340 wild-type kinases [2]; TGFBR1, 0.2 µM, read-out: residual activity", "result": 84.1, "unit": "%"}, {"measurement": "remaining activity at 1 µM", "setting": "340 wild-type kinases [2]; TGFBR1, 1 µM, read-out: residual activity", "result": 90.9, "unit": "%"}, {"measurement": "remaining activity at 0.2 µM", "setting": "340 wild-type kinases [3]; 0.2 µM 2015, read-out: PKCalpha residual activity", "result": 118, "unit": "%"}, {"measurement": "remaining activity at 1 µM", "setting": "340 wild-type kinases [3]; 1 µM 2015, read-out: PKCalpha residual activity", "result": 98.8, "unit": "%"}, {"measurement": "remaining activity at 0.2 µM", "setting": "340 wild-type kinases [3]; PKCalpha, 0.2 µM, read-out: residual activity", "result": 118, "unit": "%"}, {"measurement": "remaining activity at 1 µM", "setting": "340 wild-type kinases [3]; PKCalpha, 1 µM, read-out: residual activity", "result": 98.8, "unit": "%"}, {"measurement": "remaining activity at 0.2 µM", "setting": "340 wild-type kinases [4]; 0.2 µM 2015, read-out: NEK9 residual activity", "result": 96.5, "unit": "%"}, {"measurement": "remaining activity at 1 µM", "setting": "340 wild-type kinases [4]; 1 µM 2015, read-out: NEK9 residual activity", "result": 93, "unit": "%"}, {"measurement": "remaining activity at 0.2 µM", "setting": "340 wild-type kinases [4]; NEK9, 0.2 µM, read-out: residual activity", "result": 96.5, "unit": "%"}, {"measurement": "remaining activity at 1 µM", "setting": "340 wild-type kinases [4]; NEK9, 1 µM, read-out: residual activity", "result": 93, "unit": "%"}, {"measurement": "remaining activity at 0.2 µM", "setting": "340 wild-type kinases [5]; 0.2 µM 2015, read-out: CDK7/CycH/MAT1 residual activity", "result": 94, "unit": "%"}, {"measurement": "remaining activity at 1 µM", "setting": "340 wild-type kinases [5]; 1 µM 2015, read-out: CDK7/CycH/MAT1 residual activity", "result": 91.1, "unit": "%"}, {"measurement": "remaining activity at 0.2 µM", "setting": "340 wild-type kinases [5]; CDK7/CycH/MAT1, 0.2 µM, read-out: residual activity", "result": 94, "unit": "%"}, {"measurement": "remaining activity at 1 µM", "setting": "340 wild-type kinases [5]; CDK7/CycH/MAT1, 1 µM, read-out: residual activity", "result": 91.2, "unit": "%"}, {"measurement": "remaining activity at 0.2 µM", "setting": "340 wild-type kinases [6]; 0.2 µM 2015, read-out: FGFR4 residual activity", "result": 107, "unit": "%"}, {"measurement": "remaining activity at 1 µM", "setting": "340 wild-type kinases [6]; 1 µM 2015, read-out: FGFR4 residual activity", "result": 95.9, "unit": "%"}, {"measurement": "remaining activity at 0.2 µM", "setting": "340 wild-type kinases [6]; FGFR4, 0.2 µM, read-out: residual activity", "result": 107, "unit": "%"}, {"measurement": "remaining activity at 1 µM", "setting": "340 wild-type kinases [6]; FGFR4, 1 µM, read-out: residual activity", "result": 95.9, "unit": "%"}, {"measurement": "remaining activity at 0.2 µM", "setting": "340 wild-type kinases [7]; 0.2 µM 2015, read-out: BMPR1B residual activity", "result": 105, "unit": "%"}, {"measurement": "remaining activity at 1 µM", "setting": "340 wild-type kinases [7]; 1 µM 2015, read-out: BMPR1B residual activity", "result": 103, "unit": "%"}, {"measurement": "remaining activity at 0.2 µM", "setting": "340 wild-type kinases [7]; BMPR1B, 0.2 µM, read-out: residual activity", "result": 105, "unit": "%"}, {"measurement": "remaining activity at 1 µM", "setting": "340 wild-type kinases [7]; BMPR1B, 1 µM, read-out: residual activity", "result": 103, "unit": "%"}, {"measurement": "remaining activity at 0.2 µM", "setting": "340 wild-type kinases [8]; 0.2 µM 2015, read-out: ITK residual activity", "result": 89.4, "unit": "%"}, {"measurement": "remaining activity at 1 µM", "setting": "340 wild-type kinases [8]; 1 µM 2015, read-out: ITK residual activity", "result": 87, "unit": "%"}, {"measurement": "remaining activity at 0.2 µM", "setting": "340 wild-type kinases [8]; ITK, 0.2 µM, read-out: residual activity", "result": 89.4, "unit": "%"}, {"measurement": "remaining activity at 1 µM", "setting": "340 wild-type kinases [8]; ITK, 1 µM, read-out: residual activity", "result": 87, "unit": "%"}]}
